Type in all cases: cell-based
In one data set the test system is HBeAg. In words: PHH HBV natural infection assay, HBeAg (alphalisa). Conditions: Hepatitis B virus, Hepatocyte, read-out: HBeAg IC50. The protocol:
(§1) Detailed procedures regarding primary human hepatocyte (PHH) HBV natural infection assay are described as below. One tube of frozen PHH (10 million cells) is thawed in 37° C. water bath and then transferred to 20 mL of PHH thawing medium (Sigma, InVitroGRO HT Medium, Cat. S03319) with gently mixing. The cells were then centrifuged at […] for 5 min, the supernatant was discarded and the tube was refilled with 25 mL of PHH plating medium (Sigma, InVitroGRO CP Medium, Cat. S03317). The tube was shaken very gently to re-suspend all cells, and then 50 μL of cells were transferred to each well 384-well collagen I coated plate with appropriate liquid handling equipment, e.g. Integra VIAFLO384 or Agilent Bravo. The cells were then cultured for 24 hours in a cell incubator. For HBV infection, after PHH attachment on the culture plate, the plating medium was removed and replenished with PHH culture medium containing HBV virus. The PHH culture medium was prepared with Dulbecco's Modified Eagle Medium (DMEM)/F12 (1:1 in volume ratio) containing 10% fetal bovine serum (Gibco, Cat. 10099141), 5 ng/mL human epidermal growth factor (Gibco, Cat. PHG0311L), 20 ng/mL dexamethasone (Sigma, Cat. D4902-100 mg), 250 ng/mL human recombinant insulin (Gibco, Cat. 41400045) and 100 U/mL penicillin. HBV virus at 200 genome equivalent (GE) per cell with 4% PEG8000 (Sigma, Cat. P1458) containing culture medium were added to the PHH culture medium for infection. The cells were then cultured for 24 hours in cell incubator. Then the cell culture supernatant was removed. The HBV-infected PHH were cultured with sandwich culture method with MEI culture medium containing 1% DMSO and 0.25 mg/mL matrix gel for 72 hours. The supernatant was then refreshed with PHH culture medium containing different concentrations of testing compounds for two times with 72-hour interval. At the end of treatment, the supernatant was collected for viral markers measurements, including HBsAg, HBeAg, HBV DNA and cytotoxicity. HBsAg and HBeAg were detected using alphalisa method using their specific antibodies. For HBV DNA detection, HBV DNA Quantitative Fluorescence Diagnostic Kit (Sansure Biotech Inc.) was used following the manufacture's protocol. Cytotoxicity was determined using Cell Counting Kit-8 (CCK8, Dojindo Molecular Technologies, Inc.).
(§2) The compounds of the present invention were tested for their capacity to inhibit HBsAg and HBeAg as described herein.

In another data set the test system is HBsAg. In words: PHH HBV natural infection assay, HBsAg (alphalisa). To be noted: Hepatitis B virus, Hepatocyte, read-out: HBsAg IC50. The protocol: as §1, §2
The nature of data set [1]: Cytotoxicity in PHH natural infection assay (Cell Counting Kit-8). Conditions: HBV-infected primary human hepatocytes, CCK8. As for the experimental part: as §1

For `NC(=O)c1ccc(C(=O)NCC2CCN(c3nc4cc(Cl)ccc4o3)CC2)o1` [Example 1, N2-[[1-(5-Chloro-1,3-benzoxazol-2-yl)-4-piperidyl]methyl]furan-2,5-dicarboxamide], the half-inhibitory concentration (IC50) in the data set with HBeAg was 7.13 µM; in the data set with HBsAg, 9.4 µM. Also, the CC50 at 144 h in data set [1] was above 10 µM.
In the same order, the values of `O=C(NCC1CCN(c2nc3cc(Cl)ccc3o2)CC1)c1ccc(C(F)(F)F)nc1` [Example 2, N-[[1-(5-chloro-1,3-benzoxazol-2-yl)-4-piperidyl]methyl]-6-(trifluoromethyl)pyridine-3-carboxamide] are 6.31 µM, 8.1 µM and above 10 µM.
In the same order, the values of `O=C(NCC1CCN(c2nc3cc(Cl)ccc3o2)CC1)c1ccnc(S(=O)(=O)C2CC2)c1` [Example 3, N-[[1-(5-chloro-1,3-benzoxazol-2-yl)-4-piperidyl]methyl]-2-cyclopropylsulfonyl-pyridine-4-carboxamide] are 6.38 µM, 7.84 µM and above 10 µM.
The corresponding values for `CS(=O)(=O)c1cccc(C(=O)NCC2CCN(c3nc4cc(Cl)ccc4o3)CC2)c1` [Example 4, N-[[1-(5-chloro-1,3-benzoxazol-2-yl)-4-piperidyl]methyl]-3-methylsulfonyl-benzamide] are 5.74 µM, 6.28 µM and above 10 µM.
In the case of `CS(=O)(=O)c1cc(C(=O)NCC2CCN(c3nc4cc(Cl)ccc4o3)CC2)ccn1` [Example 5, N-[[1-(5-chloro-1,3-benzoxazol-2-yl)-4-piperidyl]methyl]-2-methylsulfonyl-pyridine-4-carboxamide], the IC50 in the data set with HBeAg was found to be 4.93 µM; in the data set with HBsAg, 4.68 µM. The same molecule came in with a CC50 at 144 h in data set [1] above 10 µM.
The corresponding values for `NC(=O)c1cc(C(=O)NCC2CCN(c3nc4cc(Cl)ccc4o3)CC2)ccn1` [Example 6, N4-[[1-(5-chloro-1,3-benzoxazol-2-yl)-4-piperidyl]methyl]pyridine-2,4-dicarboxamide] are 4.43 µM, 4.36 µM and above 10 µM.
The corresponding values for `O=C(NCC1CCN(c2nc3cc(Cl)ccc3o2)CC1)c1ccc(C(F)(F)F)o1` [Example 7, N-[[1-(5-chloro-1,3-benzoxazol-2-yl)-4-piperidyl]methyl]-5-(trifluoromethyl)furan-2-carboxamide] are 3.45 µM, 3.83 µM and 96.7 µM.
On to `NS(=O)(=O)c1ccc(C(=O)NCC2CCN(c3nc4cc(Cl)ccc4o3)CC2)o1` [Example 8, N-[[1-(5-chloro-1,3-benzoxazol-2-yl)-4-piperidyl]methyl]-5-sulfamoyl-furan-2-carboxamide], for which the IC50 amounted to 2.85 µM in the data set with HBeAg and 3.14 µM in the data set on HBsAg. Also, in data set [1], the CC50 at 144 h was above 10 µM.
The corresponding values for `CS(=O)(=O)c1cncc(C(=O)NCC2CCN(c3nc4cc(Cl)ccc4o3)CC2)c1` [Example 9, N-[[1-(5-chloro-1,3-benzoxazol-2-yl)-4-piperidyl]methyl]-5-methylsulfonyl-pyridine-3-carboxamide] are 1.83 µM, 1.5 µM and above 10 µM.
Regarding `O=C(NCC1CCN(c2nc3cc(Cl)ccc3o2)CC1)C1CS(=O)(=O)C1` [Example 10, N-[[1-(5-chloro-1,3-benzoxazol-2-yl)-4-piperidyl]methyl]-1,1-dioxo-thietane-3-carboxamide], the IC50 was determined as 10.4 µM with HBeAg and 9.67 µM in the data set on HBsAg. This molecule also yielded a CC50 at 144 h in data set [1] above 100 µM.
As for `O=C(NCC1CCN(c2nc3cc(Cl)ccc3o2)C1)c1ccnc(S(=O)(=O)C2CC2)c1` (stereo not drawn) [Example 11, N-[[1-(5-chloro-1,3-benzoxazol-2-yl)pyrrolidin-3-yl]methyl]-2-cyclopropylsulfonyl-pyridine-4-carboxamide], the IC50 in the data set with HBeAg was 7.85 µM; in the data set with HBsAg, 9.14 µM. For the same molecule, the CC50 at 144 h in data set [1] was above 10 µM.
Regarding `O=C(NC1CCN(c2nc3cc(Cl)ccc3o2)CC1)c1ccc(C(F)(F)F)o1` [Example 12, N-[1-(5-chloro-1,3-benzoxazol-2-yl)-4-piperidyl]-5-(trifluoromethyl)furan-2-carboxamide], the figures for the IC50 in the data set on HBeAg and with HBsAg were 5.44 µM and 4.59 µM, respectively. Besides, the CC50 at 144 h in data set [1] was above 100 µM.
The corresponding values for `CS(=O)(=O)N1CCC(C(=O)NCC2CCN(c3nc4cc(Cl)ccc4o3)CC2)C1` (stereo not drawn) [Example 13, N-[[1-(5-chloro-1,3-benzoxazol-2-yl)-4-piperidyl]methyl]-1-methylsulfonyl-pyrrolidine-3-carboxamide] are 8.5 µM, 9.37 µM and above 10 µM.
The corresponding values for `Cc1ccc(S(=O)(=O)N2CCC(C(=O)NCC3CCN(c4nc5cc(Cl)ccc5o4)CC3)C2)cc1` (stereo not drawn) [Example 14, N-[[1-(5-chloro-1,3-benzoxazol-2-yl)-4-piperidyl]methyl]-1-(p-tolylsulfonyl)pyrrolidine-3-carboxamide] are 4.16 µM, 3.82 µM and above 10 µM.
As for `CS(=O)(=O)N1CCC(C(=O)NCC2CCN(c3nc4cc(Cl)ccc4o3)CC2)CC1` [Example 15, N-[[1-(5-chloro-1,3-benzoxazol-2-yl)-4-piperidyl]methyl]-1-methylsulfonyl-piperidine-4-carboxamide], the IC50 came out at 3.64 µM in the data set on HBeAg and 3.97 µM in the data set with HBsAg. Besides, the CC50 at 144 h in data set [1] is above 10 µM.
The corresponding values for `Cc1ccc(S(=O)(=O)N2CCC(C(=O)NCC3CCN(c4nc5cc(Cl)ccc5o4)CC3)CC2)cc1` [Example 16, N-[[1-(5-chloro-1,3-benzoxazol-2-yl)-4-piperidyl]methyl]-1-(p-tolylsulfonyl)piperidine-4-carboxamide] are 3.67 µM, 3.74 µM and above 10 µM.
With `CS(=O)(=O)N1CC(CC(=O)NCC2CCN(c3nc4cc(Cl)ccc4o3)CC2)C1` [Example 17, N-[[1-(5-chloro-1,3-benzoxazol-2-yl)-4-piperidyl]methyl]-2-(1-methylsulfonylazetidin-3-yl)acetamide], the IC50 was above 10 µM with HBeAg and 8.23 µM with HBsAg. This molecule also gave a CC50 at 144 h in data set [1] above 10 µM.
With `Cc1ccc(S(=O)(=O)N2CCC(CC(=O)NCC3CCN(c4nc5cc(Cl)ccc5o4)CC3)C2)cc1` (stereo not drawn) [Example 18, N-[[1-(5-chloro-1,3-benzoxazol-2-yl)-4-piperidyl]methyl]-2-[1-(p-tolylsulfonyl)pyrrolidin-3-yl]acetamide], the IC50 turned out to be 3.78 µM in the data set on HBeAg and 3.9 µM in the data set with HBsAg. The molecule also came in with a CC50 at 144 h in data set [1] above 10 µM.
In the same order, the values of `CS(=O)(=O)N1CCC(CC(=O)NCC2CCN(c3nc4cc(Cl)ccc4o3)CC2)CC1` [Example 19, N-[[1-(5-chloro-1,3-benzoxazol-2-yl)-4-piperidyl]methyl]-2-(1-methylsulfonyl-4-piperidyl)acetamide] are 3.75 µM, 7.74 µM and above 10 µM.
In the same order, the values of `Cc1ccc(S(=O)(=O)N2CCC(CC(=O)NCC3CCN(c4nc5cc(Cl)ccc5o4)CC3)CC2)cc1` [Example 20, N-[[1-(5-chloro-1,3-benzoxazol-2-yl)-4-piperidyl]methyl]-2-[1-(p-tolylsulfonyl)-4-piperidyl]acetamide] are 4.05 µM, 3.88 µM and above 10 µM.

The values are drawn from patent US20230416238A1, “N-[(1,3-BENZOXAZOL-2-YL)-HETEROCYCLE]AMIDE DERIVATIVES FOR THE TREATMENT AND PROPHYLAXIS OF HEPATITIS B VIRUS INFECTION” (Hoffmann-La Roche Inc., priority 2020, published 2023).
